Tested on: hair follicles from biopsies of human scalps
Assay: Hair follicles cultured in vitro for 8 days: increase in the diameter of the hair shaft (fiber)
Format: cell-based
Details: for average % of increase between D0 and D8: PX 1 mM, hair shaft diameter; for average % of increase of the diameter of the shafts: same test as for proxylane, method states each glycoside at 10 μM, d0 to d8
Method: The hair follicles come from biopsies of human scalps, from cosmetic surgery operations conducted on white Caucasian women aged 45 to 75 years.
The hair follicles are dissected according to the method described in patent application FR 2 736 721 and U.S. Pat. No. 5,712,169, and only the terminal anagen and pigmented hair follicles are studied.
Freshly dissected hair follicles are introduced into multi-well plates containing 500 μL of William's medium, Invitrogen reference 22551022, enriched with insulin to […], 10 ng/mL of hydrocortisone, 10 μg/mL of L-Glutamine and 0.5% antibiotics (Gibco, reference 15240-096).
The C-glycosides are then incubated versus a vehicle alone (control condition), the hair follicles are placed in the incubator (37° C., 5% CO2) and kept alive in these different conditions for 8 days. The culture mediums (of the treated and control conditions) are replaced every two days.
Each glycoside is studied at 10 μM, (dilution of the solid compound in water), versus the vehicle alone (water) for the control condition.
Each condition is carried out on 12 different hair follicles, which makes it possible to overcome inter-follicle variabilities, and repeated over 3 different subjects (biopsies of scalp from 3 different volunteers) in order to evaluate the robustness of the results, and to overcome inter-donor variability.
During the 8 days of treatment, all of the hair follicles are observed and photographed every two days in order to evaluate the maintaining of their survival. They are also measured using a binocular magnifier (Leica) provided with a micrometric eyepiece in order to ensure the proper growth thereof.
The diameter of the hair shaft is measured using photographs taken of all of the hair follicles at d0 and at d8. Using the Leica Application Suite software (Leica), the hair shaft is cropped, its surface is then calculated and its average diameter is determined. The increase in the diameter of the fiber generated in vitro is determined by: (average diameter at d8 Dd8−average diameter at d0 Dd0)*100/Dd0.

CC(O)C[C@@H]1OC[C@@H](O)[C@H](O)[C@H]1O (stereo partly drawn) [PX, 1,5-anhydro-6,8-dideoxy-L-gluco-octitol (Proxylane)]
thickness of the newly-formed hair shaft (for each subject, in the presence of proxylane): increase in the thickness of the newly-formed hair shaft is observed
average % of increase between D0 and D8 (individual 1, control +9.7): +17.5%
average % of increase between D0 and D8 (individual 2, control +2.7): +11.2%
average % of increase between D0 and D8 (individual 3, control +4.3): +14.5%

O[C@H]1[C@H](O)COC(OCCc2ccccc2)[C@@H]1O (stereo partly drawn) [Glycoside 3, 2-phenylethyl D-xylopyranoside]
average % of increase of the diameter of the shafts: 16%

OC1OC[C@@H](O)[C@H](O)[C@H]1O (stereo partly drawn) [Glycoside 4, D-xylose]
average % of increase of the diameter of the shafts: 11%

COc1cc(CCC(O)CC2OC[C@@H](O)[C@H](O)[C@H]2O)ccc1O (stereo partly drawn) [Glycoside 2, (3R,4S,5R)-2-[2-hydroxy-4-(4-hydroxy-3methxyphenyl)butyl] tetrahydro-2Hpyran-3,4,5-triol]
average % of increase of the diameter of the shafts: 12.7%
